The source made the active and inactive calls.
Legend:
Protein skinhead-1 = target: T1, Protein skinhead-1 (Caenorhabditis elegans, UniProt P34707); assay type: functional
T1 sequence (P34707 whole entry): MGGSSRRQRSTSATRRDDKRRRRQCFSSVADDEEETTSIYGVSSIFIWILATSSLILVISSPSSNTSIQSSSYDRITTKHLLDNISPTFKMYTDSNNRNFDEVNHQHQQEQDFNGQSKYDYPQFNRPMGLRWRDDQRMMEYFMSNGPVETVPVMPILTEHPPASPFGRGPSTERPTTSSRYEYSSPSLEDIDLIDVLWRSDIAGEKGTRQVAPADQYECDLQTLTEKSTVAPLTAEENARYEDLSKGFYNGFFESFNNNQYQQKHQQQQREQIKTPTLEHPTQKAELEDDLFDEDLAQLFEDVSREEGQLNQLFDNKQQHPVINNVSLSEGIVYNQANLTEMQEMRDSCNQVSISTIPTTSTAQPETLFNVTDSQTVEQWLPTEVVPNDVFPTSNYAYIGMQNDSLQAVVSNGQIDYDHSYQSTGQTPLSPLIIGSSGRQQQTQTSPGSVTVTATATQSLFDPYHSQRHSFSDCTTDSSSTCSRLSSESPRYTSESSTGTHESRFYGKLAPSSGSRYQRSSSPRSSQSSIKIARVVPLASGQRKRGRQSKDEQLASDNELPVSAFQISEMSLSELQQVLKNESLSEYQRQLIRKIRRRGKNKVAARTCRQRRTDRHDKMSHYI

H9c2 = test: cells; assay type: functional, cell-based; settings: Rattus norvegicus, H9c2, Myocardium
[1] = Luminescence Cell-Based Dose Response HTS to Identify Activators of Luciferase Translation or Activity in H4 […] Cells. [Related pubchem assays: 1829 (Project Summary), 1814 (Primary HTS)]; assay type: functional
H4 = test: Luminescence Cell-Based Dose Response HTS to Identify Activators of 5'UTR Stem-Loop Driven Prion Protein mRNA Translation in H4 Neuroglioblastoma Cells. [Related pubchem assays: 1829 (Project Summary), 1814 (Primary HTS)]; assay type: functional; settings: Homo sapiens
[2] = target: T2, Carboxy-terminal domain RNA polymerase II polypeptide A small phosphatase 1 (Homo sapiens, UniProt Q9GZU7); test: inhibitors of CTDSP1, concentration-response testing, biochemical assay, absorbance-based, actives from ultra-high-throughput screening (AID 540297); assay type: functional
T2 sequence (Q9GZU7 whole entry): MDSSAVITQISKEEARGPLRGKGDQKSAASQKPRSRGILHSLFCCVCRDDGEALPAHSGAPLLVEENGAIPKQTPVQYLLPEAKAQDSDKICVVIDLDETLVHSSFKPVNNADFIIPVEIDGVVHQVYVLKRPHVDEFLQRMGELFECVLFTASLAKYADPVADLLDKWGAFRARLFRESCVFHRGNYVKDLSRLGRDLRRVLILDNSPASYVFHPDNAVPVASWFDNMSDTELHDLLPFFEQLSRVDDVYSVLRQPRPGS

[3] = target: T3, RNA-binding protein pos-1 (Caenorhabditis elegans, UniProt G5EF15); test: inhibitors of POS-1/mex-3 RNA binding, dose response, biochemical, fluorescence polarization (AID 1964);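 also: purified POS-1 fused to maltose binding protein made in E. coli; potency of compounds blocking POS-1 binding to fluorescent RNA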
T3 sequence (G5EF15 whole entry): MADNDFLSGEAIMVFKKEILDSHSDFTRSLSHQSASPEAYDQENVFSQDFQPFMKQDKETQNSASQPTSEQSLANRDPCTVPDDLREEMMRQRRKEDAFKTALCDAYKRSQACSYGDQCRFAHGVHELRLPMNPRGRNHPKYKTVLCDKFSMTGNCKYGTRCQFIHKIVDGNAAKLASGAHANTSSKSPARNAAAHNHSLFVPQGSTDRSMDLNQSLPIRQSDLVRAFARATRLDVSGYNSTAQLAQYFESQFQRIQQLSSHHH

[4] = target: T4, Zinc finger protein mex-5 (Caenorhabditis elegans, UniProt Q9XUB2); test: MEX-5/TCR-2 RNA interaction inhibitors, dose response, biochemical, C. elegans, fluorescence polarization (AID 1960)
T4 sequence (Q9XUB2 whole entry): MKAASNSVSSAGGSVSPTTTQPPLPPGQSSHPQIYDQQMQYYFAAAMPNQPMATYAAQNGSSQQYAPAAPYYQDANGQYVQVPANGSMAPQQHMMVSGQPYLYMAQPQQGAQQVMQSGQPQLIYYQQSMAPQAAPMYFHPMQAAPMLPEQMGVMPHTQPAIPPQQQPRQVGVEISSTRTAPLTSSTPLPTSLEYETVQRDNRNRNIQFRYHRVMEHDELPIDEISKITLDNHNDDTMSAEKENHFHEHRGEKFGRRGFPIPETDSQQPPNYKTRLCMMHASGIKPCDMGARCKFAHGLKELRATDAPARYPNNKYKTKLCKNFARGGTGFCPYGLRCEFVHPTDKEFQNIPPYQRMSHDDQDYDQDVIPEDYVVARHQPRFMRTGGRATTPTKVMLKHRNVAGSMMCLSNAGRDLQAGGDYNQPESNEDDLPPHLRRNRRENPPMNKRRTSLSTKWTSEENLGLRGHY

[5] = target: T5, Heat shock factor protein 1 (Mus musculus, UniProt P38532); test: HSF1 potentiators in luciferase reporter cells, confirmation, cell-based, NIH3T3, luminescence, dose retest (AID 435004); assay type: functional;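 also: stress induced by proteasome inhibitor MG132 added 30 min after compound; luciferase reporter driven by HSF1 response element in NIH3T3 cells; actives raise luminescence as potentiators of the MG132 stress response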
T5 sequence (P38532 whole entry): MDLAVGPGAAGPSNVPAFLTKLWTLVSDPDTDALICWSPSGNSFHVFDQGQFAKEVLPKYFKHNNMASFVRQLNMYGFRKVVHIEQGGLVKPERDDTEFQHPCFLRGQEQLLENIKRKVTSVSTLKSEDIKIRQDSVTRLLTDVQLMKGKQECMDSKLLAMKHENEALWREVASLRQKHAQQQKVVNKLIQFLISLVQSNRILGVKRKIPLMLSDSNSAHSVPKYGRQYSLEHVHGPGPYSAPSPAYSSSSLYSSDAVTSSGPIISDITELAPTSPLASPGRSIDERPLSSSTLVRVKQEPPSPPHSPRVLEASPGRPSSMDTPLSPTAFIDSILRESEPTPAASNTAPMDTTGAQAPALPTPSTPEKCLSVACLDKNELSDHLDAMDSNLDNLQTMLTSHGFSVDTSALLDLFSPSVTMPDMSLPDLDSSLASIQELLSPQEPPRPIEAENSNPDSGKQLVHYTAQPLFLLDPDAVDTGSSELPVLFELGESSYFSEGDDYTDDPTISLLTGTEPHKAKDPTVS

[6] = target: T6, Corticotropin-releasing factor receptor 2/Corticotropin-releasing factor-binding protein (Homo sapiens, UniProt P24387+Q13324); test: activators of CRF receptor 2 with binding protein – uHTS hits, confirmation (AID 602473); assay type: functional; settings: read-out: EC50_Mean
T6 sequence (Q13324 whole entry): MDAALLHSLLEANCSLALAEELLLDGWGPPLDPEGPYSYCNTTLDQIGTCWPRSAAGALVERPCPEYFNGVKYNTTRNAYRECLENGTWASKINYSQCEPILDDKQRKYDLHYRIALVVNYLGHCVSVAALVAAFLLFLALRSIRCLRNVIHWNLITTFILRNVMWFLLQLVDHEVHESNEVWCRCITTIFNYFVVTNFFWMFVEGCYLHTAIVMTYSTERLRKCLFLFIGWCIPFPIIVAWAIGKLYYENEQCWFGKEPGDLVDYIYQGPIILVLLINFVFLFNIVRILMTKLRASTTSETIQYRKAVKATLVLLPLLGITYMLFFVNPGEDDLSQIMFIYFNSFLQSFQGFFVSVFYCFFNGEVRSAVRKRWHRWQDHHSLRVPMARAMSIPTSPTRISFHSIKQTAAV
T6 sequence (P24387 whole entry): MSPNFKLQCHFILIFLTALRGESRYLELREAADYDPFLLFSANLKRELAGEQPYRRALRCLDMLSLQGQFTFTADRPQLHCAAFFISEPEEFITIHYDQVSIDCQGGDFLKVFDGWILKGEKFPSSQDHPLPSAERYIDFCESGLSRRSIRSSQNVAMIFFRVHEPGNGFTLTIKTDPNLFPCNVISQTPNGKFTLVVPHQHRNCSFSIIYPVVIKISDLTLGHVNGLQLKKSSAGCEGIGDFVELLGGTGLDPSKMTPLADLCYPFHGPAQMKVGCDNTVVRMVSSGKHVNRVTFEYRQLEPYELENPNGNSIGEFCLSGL

## Cc1cc(C)nc(N2C(=O)CC(C(C)c3ccccc3)C2=O)n1 (stereo not given)
Protein skinhead-1
  IC50: > 100 µM (inactive)

## O=C(N/N=C/c1ccccn1)c1ccc(NC(=O)c2cccc([N+](=O)[O-])c2)cc1
H9c2
  IC50: > 79 µM (inactive)

## CN(C)S(=O)(=O)c1ccc(N2CCCC2)c(C(=O)NCc2cccc(C(F)(F)F)c2)c1
Protein skinhead-1
  IC50: > 100 µM (inactive)

## O=C(NCCC1=CCCCC1)c1cnc2n(c1=O)CCS2
[1]
  EC50: 39.9 µM (active)
H4
  EC50: 56.6 µM (active)

## CC1(C)Oc2ccc3ccc(=O)oc3c2C(/C=N/c2ccccn2)=C1O
H9c2
  IC50: > 79 µM (inactive)

## Cc1nnc(SCC2=C(C(=O)O)N3C(=O)C(NC(=O)COc4ccccc4)C3SC2)s1 (stereo not given)
[2]
  IC50: 8.97 µM (active)

## Cc1sc2nc(NCCO)nc(O)c2c1C
H9c2
  IC50: > 79 µM (inactive)

## Cc1ccc(/N=C/c2sc(O)c3ccccc23)c(C)c1
[3]
  EC50: > 300 µM (not active)
[4]
  EC50: > 300 µM (inconclusive)

## NC(=O)c1cccc(-c2coc3c(C(=O)NCCc4ccccc4)cccc23)c1
H9c2
  IC50: > 79 µM (inactive)

## O=C1NC(=O)N(CCc2ccc(F)cc2)C(=O)/C1=C/NNC(=O)c1ccccc1
[3]
  EC50: > 300 µM (not active)
[4]
  EC50: > 300 µM (not active)

## CCCCOc1ccc(-c2nnc(-c3ccco3)o2)cc1
[5]
  EC50: > 260 µM (inactive)
Protein skinhead-1
  IC50: > 100 µM (inactive)

## O=C(NCc1ccco1)C1CC(c2ccccc2O)=NO1 (stereo not given)
[6]
  EC50: > 53 µM (inactive)

## c1ccc(-c2noc(CC3CCCCC3)n2)cc1
[1]
  EC50: > 120 µM (not active)
H4
  EC50: > 120 µM (not active)

## CCOC(=O)c1nc(Nc2ccc(C(=O)OC)cc2)c2ccccc2n1
H9c2
  IC50: > 79 µM (inactive)

## O=C(CN1C(=O)N/C(=C\c2ccccc2OCc2ccc(C(=O)O)cc2)C1=O)Nc1ccccc1F
[2]
  IC50: 7.13 µM (active)

## N#Cc1c(SCC(=O)Nc2cccc(C(F)(F)F)c2)sc2c(O)cc(O)nc12
[2]
  IC50: 10.4 µM (active)

## O=C(CSc1nc2ccccc2o1)NCc1nnc(O)c2ccccc12
H9c2
  IC50: 8.34 µM (active)

## COC(=O)[C@H](CCSC)NC(=O)NC1CCN(Cc2ccccc2)CC1
[3]
  EC50: > 300 µM (not active)
[4]
  EC50: > 300 µM (not active)

## CCCn1c(=O)[nH]c(=O)c2c1nc(-c1ccccc1)n2CCN1CCOCC1
[2]
  IC50: 47.8 µM (active)

## CN1CN(c2ccccc2)C2(CCN(CCCSc3ccccc3NC(=O)/C=C/c3ccccc3)CC2)C1=O
[6]
  EC50: 6.22 µM (active)

## CC(=O)Oc1oc(-c2ccccc2)nc1/C=N/c1ccc(N(C)C)cc1
[3]
  EC50: > 300 µM (not active)
[4]
  EC50: > 300 µM (not active)

## O=C(Nc1cccc(-c2nc3ccccc3s2)c1)c1cc(=O)c2ccccc2o1
[2]
  IC50: 5.07 µM (active)

## CCCC(=O)Nc1cc(C)c2c(=O)oc3ccccc3c2n1
H9c2
  IC50: > 79 µM (inactive)

## O=C(N/N=C/c1ccccn1)c1cc(-c2cccc3ccccc23)[nH]n1
H9c2
  IC50: > 79 µM (inactive)

## O=C(Nc1ccc2c(c1)oc1ccccc12)N1CCOCC1
[1]
  EC50: 1.32 µM (active)
H4
  EC50: > 120 µM (not active)

## Cc1nonc1OC(C)CNc1ccc([N+](=O)[O-])cc1 (stereo not given)
Protein skinhead-1
  IC50: > 100 µM (inactive)

## CCCc1nc2ccccc2c(C(=O)OCc2nnc(-c3cc(OC)c(OC)c(OC)c3)o2)c1CC
H9c2
  IC50: > 79 µM (inactive)

## O=C(O)COc1ccc(Br)cc1/C=N/O
[2]
  IC50: 8.03 µM (active)

## O=C1/C(=C/c2ccco2)CCc2ccccc21
Protein skinhead-1
  IC50: 31.2 µM (active)

## CC(Oc1ccc(Br)cc1)C(=O)N1CCc2ccccc21 (stereo not given)
[6]
  EC50: 8.32 µM (active)

## CC(C)c1ccc2oc(-c3ccc(NC(=O)c4nnc[nH]4)cc3)nc2c1
[2]
  IC50: 6.65 µM (active)

## NC(=O)CC(NC(=O)Cc1cccc2ccccc12)c1ccc(N2CCC(N3CCCCC3)CC2)c([N+](=O)[O-])c1 (stereo not given)
Protein skinhead-1
  IC50: > 100 µM (inactive)

## Cc1[nH]c2ccccc2c1/C=N/NC(=S)NC(C)C
[3]
  EC50: > 300 µM (not active)
[4]
  EC50: > 300 µM (not active)

## COc1ccc(OC)c(C2C(C(=O)c3ccco3)=C(O)C(=O)N2CCN2CCOCC2)c1 (stereo not given)
[3]
  EC50: > 300 µM (not active)
[4]
  EC50: > 300 µM (not active)

## CCC(=O)N1c2ccc(S(=O)(=O)CCC(=O)NCc3cccs3)cc2CC1C (stereo not given)
Protein skinhead-1
  IC50: > 100 µM (inactive)

## Clc1ccc(OCCCc2nc(-c3ccncc3)no2)c(Cl)c1
Protein skinhead-1
  IC50: 20.4 µM (active)

## CCOC(=O)N1CC=C2C(C#N)=C(N)C(C#N)(C#N)[C@H](c3ccsc3)[C@H]2C1
[3]
  EC50: 78.8 µM (active)
[4]
  EC50: 58.7 µM (active)

## Fc1ccc(COc2ccc(-c3nnco3)cc2)c(Cl)c1
Protein skinhead-1
  IC50: 6.56 µM (active)

## Fc1ccc(CSc2nc3cc(Br)c[nH]c-3n2)cc1
[2]
  IC50: 9.63 µM (active)

From ChEMBL document CHEMBL1201862, “PubChem BioAssay data set” (2004)
